{"source": "BindingDB's records for doi:10.1021/acs.jmedchem.8b01224", "about": "(Helmholtz Zentrum M?nchen, 2018)", "key": {"[1]": {"biological_target": "T1, Tyrosine-protein phosphatase non-receptor type 1 (Homo sapiens, UniProt P18031)", "T1 sequence (P18031 whole entry)": "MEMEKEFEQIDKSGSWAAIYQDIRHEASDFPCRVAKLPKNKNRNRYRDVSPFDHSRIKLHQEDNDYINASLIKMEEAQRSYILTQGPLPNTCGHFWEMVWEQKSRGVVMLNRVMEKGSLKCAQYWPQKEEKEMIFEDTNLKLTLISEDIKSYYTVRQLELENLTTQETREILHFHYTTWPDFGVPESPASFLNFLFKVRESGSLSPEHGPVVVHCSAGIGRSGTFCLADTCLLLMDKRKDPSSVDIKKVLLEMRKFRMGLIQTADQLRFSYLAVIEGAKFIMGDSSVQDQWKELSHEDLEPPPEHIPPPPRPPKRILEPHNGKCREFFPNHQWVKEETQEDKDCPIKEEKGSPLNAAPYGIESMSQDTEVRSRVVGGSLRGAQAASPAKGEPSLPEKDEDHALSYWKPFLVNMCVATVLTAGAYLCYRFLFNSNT", "assay": "(§1) Binding affinity to human N-terminal His6-tagged PTP1B catalytic domain (1 to 298 residues) expressed in Escherichia coli strain Rosetta2 (DE3) assessed as dissociation rate constant using DiFMUP as substrate preincubated for 10 mins followed by substrate addition measured for 10 mins fluorescence assay"}, "[2]": {"biological_target": "T1, Tyrosine-protein phosphatase non-receptor type 1", "assay": "as §1, with “association” for “dissociation”"}}}
{"smiles": "C=c1c(O)c(O)cc2c1=CC=C1[C@@]2(C)CC[C@@]2(C)[C@@H]3C[C@](C)(C(=O)O)CC[C@]3(C)CC[C@]12C", "values": [{"measurement": "koff", "setting": "[1]", "result": 0.000362, "unit": "s⁻¹"}, {"measurement": "kon", "setting": "[2]", "result": 59, "unit": "M⁻¹ s⁻¹"}]}
